Experimental data published in publication PMC7259601 (PLoS ONE, 2020).

Legend:
[1] = tested on: THP-1 cells; assay: FACS based CD11B induction assay in THP-1; format: cell-based; settings: Homo sapiens; THP-1, 96 hr; read-out: EC50 induction of differentiation marker CD11B
Experimental: Human leukemic THP1 (ACC-16) cells ([…]) were obtained from DMSZ and maintained in RPMI 1640 medium (Cat# R0883; Sigma Aldrich) supplemented with 10 % heat inactivated fetal bovine serum (FBS; Cat# F9665; Sigma-Aldrich) and 2 mM Glutamine (Cat# X0550 Biowest).
THP-1 cells are acute leukemia cells with blast phenotype that can be induced to differentiate into a monocyte/macrophage phenotype by cell penetrant KDM1A inhibitors. Differentiation can be followed by measurement of induction of differentiation surface markers like CD11B. Cells were treated for 96 hr with KDM1A inhibitors. Fluorescent assisted cell sorting (FACS) analysis of CD11B expression was performed on 1.5 x 10^5 THP-1 cells (obtained from German Collection of microorganism and Cell Cultures; ACC-16) using a phycoerythrin-conjugated human CD11B-specific mouse monoclonal antibody (eBiosciences, #12-0118) at dilution 1:5 on a cytomics FC500 (Beckman Coulter) with FlowJo software. The mouse IgG1 K isotype (eBiosciences, #12-4714) was used as a control antibody. Concentration-response curves were determined out by assaying inhibitors at concentrations ranging between 0.32 and 200 nM.

[2] = tested on: 5-HT (non-selective) (agonist radioligand); assay: CEREP Diversity Panel; format: binding; set-up: dose or concentration left out as unconfirmed
Experimental: (§1) […]. MAO-A inhibition at 10 μM was 37%, in line with internal data.

[3] = tested on: AMPA (agonist radioligand); assay: CEREP Diversity Panel; format: binding; set-up: dose or concentration left out as unconfirmed
Experimental: as §1

[4] = tested on: BZD (central) (agonist radioligand); assay: CEREP Diversity Panel; format: binding; set-up: dose or concentration left out as unconfirmed
Experimental: as §1

[5] = tested on: Ca 2+ channel (L, dihydropyridine site) (antagonist radioligand); assay: CEREP Diversity Panel; format: binding; set-up: dose or concentration left out as unconfirmed
Experimental: as §1

[6] = tested on: Ca 2+ channel (L, diltiazem site) (benzothiazepines) (antagonist radioligand); assay: CEREP Diversity Panel; format: binding; set-up: dose or concentration left out as unconfirmed
Experimental: as §1

[7] = tested on: Ca 2+ channel (L, verapamil site) (phenylalkylamine) (antagonist radioligand); assay: CEREP Diversity Panel; format: binding; set-up: dose or concentration left out as unconfirmed
Experimental: as §1

[8] = tested on: Cl- channel (GABA-gated) (antagonist radioligand); assay: CEREP Diversity Panel; format: binding; set-up: dose or concentration left out as unconfirmed
Experimental: as §1

[9] = tested on: GABA (non-selective) (agonist radioligand); assay: CEREP Diversity Panel; format: binding; set-up: dose or concentration left out as unconfirmed
Experimental: as §1

[10] = tested on: GABA transporter (antagonist radioligand); assay: CEREP Diversity Panel; format: binding; set-up: dose or concentration left out as unconfirmed
Experimental: as §1

[11] = tested on: I1 (agonist radioligand); assay: CEREP Diversity Panel; format: binding; set-up: dose or concentration left out as unconfirmed
Experimental: as §1

[12] = tested on: KATP channel (antagonist radioligand); assay: CEREP Diversity Panel; format: binding; set-up: dose or concentration left out as unconfirmed
Experimental: as §1

[13] = tested on: KV channel (antagonist radioligand); assay: CEREP Diversity Panel; format: binding; set-up: dose or concentration left out as unconfirmed
Experimental: as §1

[14] = tested on: NMDA (antagonist radioligand); assay: CEREP Diversity Panel; format: binding; set-up: dose or concentration left out as unconfirmed
Experimental: as §1

[15] = tested on: Na+ channel (site 2) (antagonist radioligand); assay: CEREP Diversity Panel; format: binding; set-up: dose or concentration left out as unconfirmed
Experimental: as §1

[16] = tested on: P2X (agonist radioligand); assay: CEREP Diversity Panel; format: binding; set-up: dose or concentration left out as unconfirmed
Experimental: as §1

[17] = tested on: P2Y (agonist radioligand); assay: CEREP Diversity Panel; format: binding; set-up: dose or concentration left out as unconfirmed
Experimental: as §1

[18] = tested on: PCP (antagonist radioligand); assay: CEREP Diversity Panel; format: binding; set-up: dose or concentration left out as unconfirmed
Experimental: as §1

[19] = tested on: SKCa channel (antagonist radioligand); assay: CEREP Diversity Panel; format: binding; set-up: dose or concentration left out as unconfirmed
Experimental: as §1

[20] = tested on: Y (non-selective) (agonist radioligand); assay: CEREP Diversity Panel; format: binding; set-up: dose or concentration left out as unconfirmed
Experimental: as §1

[21] = tested on: alpha 1 (non-selective) (antagonist radioligand); assay: CEREP Diversity Panel; format: binding; set-up: dose or concentration left out as unconfirmed
Experimental: as §1

[22] = tested on: alpha 2 (non-selective) (antagonist radioligand); assay: CEREP Diversity Panel; format: binding; set-up: dose or concentration left out as unconfirmed
Experimental: as §1

[23] = tested on: kainate (agonist radioligand); assay: CEREP Diversity Panel; format: binding; set-up: dose or concentration left out as unconfirmed
Experimental: as §1

[24] = tested on: opioid (non-selective) (antagonist radioligand); assay: CEREP Diversity Panel; format: binding; set-up: dose or concentration left out as unconfirmed
Experimental: as §1

[25] = tested on: s (non-selective) (agonist radioligand); assay: CEREP Diversity Panel; format: binding; set-up: dose or concentration left out as unconfirmed
Experimental: as §1

In the case of `Nc1nnc(CN[C@@H]2C[C@H]2c2ccc(OCc3ccccc3)cc2)o1` [ORY-2001, vafidemstat], the EC50 [1] is reported as 21 nM, the “% inhibition” value [2] is reported as 5% and the “% inhibition” value [3] is reported as -2%. The “% inhibition” value [4] was -21%, the “% inhibition” value [5] was -1% and the “% inhibition” value [6] was 0%. For the same compound, the “% inhibition” value [7] was 5%, the “% inhibition” value [8] was 31% and the “% inhibition” value [9] was 6%. The “% inhibition” value [10] was -3%, the “% inhibition” value [11] was 26% and the “% inhibition” value [12] was 3%. For the same compound, the “% inhibition” value [13] was -4%, the “% inhibition” value [14] was 6% and the “% inhibition” value [15] was 12%. For the same compound, the “% inhibition” value [16] was 3%, the “% inhibition” value [17] was 5% and the “% inhibition” value [18] was 1%. The “% inhibition” value [19] was -11%, the “% inhibition” value [20] was -28% and the “% inhibition” value [21] was 0%. The “% inhibition” value [22] was 3%, the “% inhibition” value [23] was 2% and the “% inhibition” value [24] was -2%. For the same compound, the “% inhibition” value [25] was 9%.
